These results are taken from patent US7732604B2, “Triazolopyrazine derivatives” (Pfizer Inc., priority 2006, dated 2010).

T1 sequence (P08581 974-1390 limits assumed): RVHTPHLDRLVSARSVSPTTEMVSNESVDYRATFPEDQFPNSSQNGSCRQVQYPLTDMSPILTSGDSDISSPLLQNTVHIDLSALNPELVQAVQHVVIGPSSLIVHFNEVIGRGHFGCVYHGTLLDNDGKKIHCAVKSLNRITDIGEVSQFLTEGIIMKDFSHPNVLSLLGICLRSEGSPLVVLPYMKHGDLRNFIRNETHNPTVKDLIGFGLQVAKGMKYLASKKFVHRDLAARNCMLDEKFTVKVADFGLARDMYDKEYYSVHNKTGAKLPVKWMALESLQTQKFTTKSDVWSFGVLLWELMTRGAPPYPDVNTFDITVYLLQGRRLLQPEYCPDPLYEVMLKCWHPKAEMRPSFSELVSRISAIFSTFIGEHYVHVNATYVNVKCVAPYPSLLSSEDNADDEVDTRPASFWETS

One experiment has as its target T1, HGFR (Homo sapiens, UniProt P08581).
T1 construct: purchased Upstate 14-526
In words: HGFR continuous-coupled spectrophotometric assay (tyrosine kinase activity on Met-2 substrate peptide). The note with it: HGFR 50 nM, Met-2 peptide 0.5 mM, ATP 300 μM, 37° C., absorbance 340 nm; read-out: Ki. It counts as biochemical.
Regarding `CN(Cc1noc(C2CC2)n1)c1cnc2nnn(Cc3ccc4ncccc4c3)c2n1` [Example 95, N-[(5-cyclo-propyl-1,2,4-oxa-diazol-3-yl)meth-yl]-N-methyl-1-(quino-lin-6-yl-methyl)-1H-[1,2,3]tri-azolo[4,5-b]pyra-zin-6-amine], the Ki amounted to 20 nM.
Same read-out and setting: then `OC[C@@H]1C[C@H](F)CN1c1cnc2nnn(Cc3ccc4ncccc4c3)c2n1` [Example 96], with 17 nM.
Regarding `CCC1C(=O)NCCN1c1cnc2nnn(Cc3ccc4ncccc4c3)c2n1` (centres unmarked) [Example 97, 3-ethyl-4-[1-(quino-lin-6-yl-methyl)-1H-[1,2,3]tri-azolo[4,5-b]pyra-zin-6-yl]pipe-razin-2-one], the inhibitory constant (Ki) amounted to 20 nM.
For `c1cnc2ccc(Cn3nnc4ncc(N5CCc6[nH]ncc6C5)nc43)cc2c1` [Example 98, 6-{[6-(1,4,6,7-tetra-hydro-5H-pyra-zolo[4,3-c]pyri-din-5-yl)-1H-[1,2,3]tri-azolo[4,5-b]pyra-zin-1-yl]meth-yl}quinoline], the inhibitory constant (Ki) worked out at 13 nM.
Same read-out and setting: the value for `O[C@@H]1CCN(c2cnc3nnn(Cc4ccc5ncccc5c4)c3n2)C[C@H]1O` [Example 99, (3R,4R)-1-[1-(quino-lin-6-yl-methyl)-1H-[1,2,3]tri-azolo[4,5-b]pyra-zin-6-yl]pipe-ridine-3,4-diol] was 21 nM; that for `CC1(O)CCN(c2cnc3nnn(Cc4ccc5ncccc5c4)c3n2)CC1` [Example 101, 4-methyl-1-[1-(quino-lin-6-yl-methyl)-1H-[1,2,3]tri-azolo[4,5-b]pyra-zin-6-yl]piperidin-4-ol] was 23 nM; that for `CCc1noc(C2CCN(c3cnc4nnn(Cc5ccc6ncccc6c5)c4n3)CC2)n1` [Example 102, 6-({6-[4-(3-eth-yl-124-oxa-diazol-5-yl)pipe-ridin-1-yl]-1H-[1,2,3]tri-azolo[4,5-b]pyra-zin-1-yl}meth-yl)quinoline] was 24 nM.
Same read-out and setting: the value for `OCC1CCCN1c1cnc2nnn(Cc3ccc4ncccc4c3)c2n1` (centres unmarked) [Example 103, {1-[1-(quinolin-6-yl-methyl)-1H-[1,2,3]tri-azolo[4,5-b]pyra-zin-6-yl]pyrro-lidin-2-yl}methanol] was 39 nM.
Still for that read-out and setting: then `O[C@@H]1C[C@H]2CN(c3cnc4nnn(Cc5ccc6ncccc6c5)c4n3)CCN2C1` [Example 105, (7R,8aS)-2-[1-(quino-lin-6-yl-methyl)-1H-[1,2,3]tri-azolo[4,5-b]pyra-zin-6-yl]octa-hydropyrro-lo[12-a]pyra-zin-7-ol], with 29 nM; and `OCCC1(CO)CCN(c2cnc3nnn(Cc4ccc5ncccc5c4)c3n2)C1` (centres unmarked) [Example 106, 2-{3-(hydroxy-methyl)-1-[1-(quino-lin-6-ylmethyl)-1H-[1,2,3]tri-azolo[4,5-b]pyra-zin-6-yl]pyr-rolidin-3-yl}ethanol], with 9 nM; and `C[C@H]1CN(c2cnc3nnn(Cc4ccc5ncccc5c4)c3n2)C[C@]1(C)CO` [Example 107, {(3R,4R)-3,4-di-methyl-1-[1-(quino-lin-6-yl-methyl)-1H-[1,2,3]tri-azolo[4,5-b]pyra-zin-6-yl]pyrro-lidin-3-yl}meth-anol], with 47 nM.
With `FC(F)c1nnc2n1CCN(c1cnc3nnn(Cc4ccc5ncccc5c4)c3n1)C2` [Example 108, 6-({6-[3-(di-fluoromethyl)-5,6-di-hydro[1,2,4]tri-azolo[4,3-a]pyrazin-7(8H)-yl]-1H-[1,2,3]tri-azolo[4,5-b]pyra-zin-1-yl}meth-yl)quinoline], the inhibitory constant (Ki) was 26 nM.
Regarding `CN(C)C(C(N)=O)C1CCN(c2cnc3nnn(Cc4ccc5ncccc5c4)c3n2)CC1` (centres unmarked) [Example 109, 2-(dimethyl-amino)-2-{1-[1-(quino-lin-6-yl-methyl)-1H-[1,2,3]tri-azolo[4,5-b]pyra-zin-6-yl]pipe-ridin-4-yl}acetamide], the inhibition constant (Ki) worked out at 22 nM.
On to `OCC[C@H]1CN(c2cnc3nnn(Cc4ccc5ncccc5c4)c3n2)C[C@H]1CO` [Example 110, 2-{(3R,4S)-4-(hydroxy-methyl)-1-[1-(quino-lin-6-yl-methyl)-1H-[1,2,3]tri-azolo[4,5-b]pyra-zin-6-yl]pyrro-lidin-3-yl}eth-anol], for which the inhibitory constant (Ki) was determined as 23 nM.
On to `CC(=O)NCCNc1cnc2nnn(Cc3ccc4ncccc4c3)c2n1` [Example 111, N-(2-{[1-(quino-lin-6-yl-methyl)-1H-[1,2,3]tri-azolo[4,5-b]pyra-zin-6-yl]ami-no}ethyl)aceta-mide], for which the inhibition constant (Ki) was determined as 27 nM.
The same measure, in the same setting: the value for `CCC(CO)Nc1cnc2nnn(Cc3ccc4ncccc4c3)c2n1` (centres unmarked) [Example 112, 2-{[1-(quinolin-6-yl-methyl)-1H-[1,2,3]tri-azolo[4,5-b]pyra-zin-6-yl]ami-no}butan-1-ol] was 29 nM; that for `CC(O)CNc1cnc2nnn(Cc3ccc4ncccc4c3)c2n1` (centres unmarked) [Example 113, 1-{[1-(quinolin-6-yl-methyl)-1H-[1,2,3]tri-azolo[4,5-b]pyra-zin-6-yl]ami-no}propan-2-ol] was 8 nM.
Consider `C[C@@H](O)CNc1cnc2nnn(Cc3ccc4ncccc4c3)c2n1` [Example 114, (2R)-1-{[1-(quino-lin-6-yl-methyl)-1H-[1,2,3]tri-azolo[4,5-b]pyra-zin-6-yl]ami-no}propan-2-ol], for which the inhibition constant Ki came to 40 nM.
As for `O=c1[nH]cccc1CNc1cnc2nnn(Cc3ccc4ncccc4c3)c2n1` [Example 115, 3-({[1-(quinolin-6-yl-methyl)-1H-[1,2,3]tri-azolo[4,5-b]pyra-zin-6-yl]ami-no}meth-yl)pyridin-2(1H)-one], the inhibition constant Ki is 12 nM.
Take `CC[C@H](CO)Nc1cnc2nnn(Cc3ccc4ncccc4c3)c2n1` [Example 116, (2R)-2-{[1-(quino-lin-6-yl-methyl)-1H-[1,2,3]tri-azolo[4,5-b]pyra-zin-6-yl]ami-no}butan-1-ol]: the Ki is 10 nM.
On the same count and under the same terms, the value for `C[C@H](O)CNc1cnc2nnn(Cc3ccc4ncccc4c3)c2n1` [Example 117, (2S)-1-{[1-(quino-lin-6-yl-methyl)-1H-[1,2,3]tri-azolo[4,5-b]pyra-zin-6-yl]ami-no}propan-2-ol] was 11 nM.
Turning to `C[C@@H](CO)Nc1cnc2nnn(Cc3ccc4ncccc4c3)c2n1` [Example 118, (2S)-2-{[1-(quino-lin-6-yl-methyl)-1H-[1,2,3]tri-azolo[4,5-b]pyra-zin-6-yl]ami-no}propan-1-ol], the Ki came to 41 nM.
On the same count and under the same terms, the value for `OC[C@@H]1CC=CC[C@@H]1Nc1cnc2nnn(Cc3ccc4ncccc4c3)c2n1` [Example 119, [(1S,6R)-6-{[1-(quino-lin-6-yl-methyl)-1H-[1,2,3]tri-azolo[4,5-b]pyra-zin-6-yl]ami-no}cyclohex-3-en-1-yl]meth-anol] was 30 nM.
The same measure, in the same setting: the value for `CN(C)C(=O)CCNc1cnc2nnn(Cc3ccc4ncccc4c3)c2n1` [Example 121, N,N-dimethyl-N~3~-[1-(quino-lin-6-yl-methyl)-1H-[1,2,3]tri-azolo[4,5-b]pyra-zin-6-yl]-beta-alaninamide] was 22 nM.

The experiment is the same for the next values; noted with them: Ki, HGFR 50 nM, Met-2 peptide 0.5 mM, ATP 300 μM, 37° C., absorbance 340 nm.
Take `c1cnc2ccc(Cn3nnc4ncc(N5CCc6nc[nH]c6C5)nc43)cc2c1` [Example 100, 6-{[6-(3,4,6,7-tetra-hydro-5H-imi-dazo[4,5-c]pyri-din-5-yl)-1H-[1,2,3]tri-azolo[4,5-b]pyra-zin-1-yl]meth-yl}quinoline]: the affinity corresponds to a Ki of 37 nM.
Same read-out and setting: the value for `Cc1nccn1CC1(O)CCN(c2cnc3nnn(Cc4ccc5ncccc5c4)c3n2)C1` (centres unmarked) [Example 104, 3-[(2-methyl-1H-imi-dazol-1-yl)meth-yl]-1-[1-(quino-lin-6-yl-methyl)-1H-[1,2,3]tri-azolo[4,5-b]pyra-zin-6-yl]pyrro-lidin-3-ol] was 49 nM.

One may read the Ki as a dissociation constant, usually derived from enzyme kinetics or from competition with a known ligand.
